# Tested on: TBK1
# Assay: Immunoblot of TBK1 phosphorylation in HCT116 cells (p53 wild-type or p53-/-)
# Assay type: cell-based
# Method: Cell Culture. The MCF-7 human breast carcinoma cell line and HCT116 p53 wild-type and HCT116 p53−/− cell lines were obtained from ATCC. […]
# Immunoblotting. […] One hour after IR, cells were lysed in RIPA buffer ([…], pH 8.0, 150 mM NaCl, 0.1% SDS, 0.5% sodium deoxycholate, 1% IGEPAL® CA-630 (Sigma, 18896) for 20 min at 4° C. in the presence of protease and phosphatase inhibitor cocktails (Roche, #04693159001 & #04906837001). Cell lysates were centrifuged at 13,200 g for 10 min at 4° C. and supernatants were analyzed for protein content using BCA assay (Pierce™ BCA Protein Assay Kit, cat #23227, ThermoFisher Waltham, Mass. 02451) and equal amounts of protein/lane were used for subsequent immunoblot analyses. Proteins were denatured by adding NuPAGE LSD Sample Buffer [4×] […]
smiles,measurement,setting,value
"CC(C)NCCOc1ncc(-c2cc3c4c(cnc3cc2F)N(C)C(=O)C42CCC2)cc1NS(C)(=O)=O [Compound 569, N-(5-(7′-Fluoro-3′-methyl-2′-oxo-2′,3′-dihydrospiro[cyclobutane-1,1′-pyrrolo[2,3-c]quinolin]-8′-yl)-2-(2-(isopropylamino)ethoxy)pyridin-3-yl)methanesulfonamide]",induction of phosphorylation (activation) of TBK1,"HCT116 p53 wild-type or p53-/- cells, 569 1 μM, ATMi + DNA-PKi 0.5 or 1 micromolar each, 0 or 10 Gy",more potent activator of TBK1 phosphorylation than either of the single target kinase inhibitors
same,dependence of TBK1 activation on p53 status,"HCT116 p53 wild-type vs p53-negative cells, 1 μM",independent of p53 status

# From patent publication US20220142995A1, “DUAL ATM AND DNA-PK INHIBITORS FOR USE IN ANTI-TUMOR THERAPY” (XRAD Therapeutics, Inc., priority 2019, published 2022)
